According to ChEMBL document CHEMBL3046713, “Synthesis and antimicrobial activity of pyrimidine chalcones” (2013):

Key:
Assay type in all cases: functional
Escherichia coli [1] = test: Antibacterial activity against Escherichia coli DH5[alpha] at 2.5 mg/ml after 24 hrs by Kirby-Bauer single disc susceptibility test; settings: read-out: DIZ
Rhodococcus rhodochrous [2] = test: Antibacterial activity against Rhodococcus rhodochrous MTCC 265 at 5 mg/ml after 24 hrs by Kirby-Bauer single disc susceptibility test; settings: MTCC 265, 24 h, read-out: DIZ
Escherichia coli [3] = test: Antibacterial activity against Escherichia coli DH5[alpha] at 5 mg/ml after 24 hrs by Kirby-Bauer single disc susceptibility test; settings: read-out: DIZ
Rhodococcus rhodochrous [4] = test: Antibacterial activity against Rhodococcus rhodochrous MTCC 265 at 2.5 mg/ml after 24 hrs by Kirby-Bauer single disc susceptibility test; settings: MTCC 265, 24 h, read-out: DIZ

Compound | zone of inhibition at 2500 µg/mL (Escherichia coli [1]) | zone of inhibition at 5000 µg/mL (Rhodococcus rhodochrous [2]) | zone of inhibition at 5000 µg/mL (Escherichia coli [3]) | zone of inhibition at 2500 µg/mL (Rhodococcus rhodochrous [4])
Cn1c(O)c(C(=O)/C=C/c2ccc(OCc3cn(-c4ccc(F)cc4)nn3)cc2)c(=O)n(C)c1=O | 0 mm | 0 mm | 0 mm | 0 mm
Cn1c(O)c(C(=O)/C=C/c2ccc(OCc3cn(-c4ccccc4)nn3)cc2)c(=O)n(C)c1=O | 4 mm | 3 mm | 3 mm | 4 mm
COc1cccc(-n2cc(COc3ccc(/C=C/C(=O)c4c(O)n(C)c(=O)n(C)c4=O)cc3)nn2)c1 | 3 mm | 2 mm | 3.5 mm | 3 mm
Cc1cccc(-n2cc(COc3ccc(/C=C/C(=O)c4c(O)n(C)c(=O)n(C)c4=O)cc3)nn2)c1 | 2 mm | 2 mm | 2 mm | 3 mm
Cn1c(O)c(C(=O)/C=C/c2ccc(OCc3cn(-c4ccc(Br)cc4)nn3)cc2)c(=O)n(C)c1=O | 0 mm | 2 mm | 0 mm | 3 mm
Cn1c(O)c(C(=O)/C=C/c2ccc(OCc3cn(-c4ccc(Cl)cc4)nn3)cc2)c(=O)n(C)c1=O | 0 mm | 0 mm | 0 mm | 0 mm
Cn1c(O)c(C(=O)/C=C/c2ccc(OCc3cn(Cc4ccccc4)nn3)cc2)c(=O)n(C)c1=O | 0 mm | 2 mm | 0 mm | 2 mm
COc1ccc(-n2cc(COc3ccc(/C=C/C(=O)c4c(O)n(C)c(=O)n(C)c4=O)cc3)nn2)cc1 | 0 mm | 2 mm | 0 mm | 2 mm
